Drawing on the Kinase Knowledgebase extract (Sharma et al. 2016), this text covers IC50 for 14 compounds.

The target in the assay is MAPK14 (UniProt Q16539). Description: p38 Inhibition Assay (in Vitro).
Chain of MAPK14 (Q16539 whole entry, looked up): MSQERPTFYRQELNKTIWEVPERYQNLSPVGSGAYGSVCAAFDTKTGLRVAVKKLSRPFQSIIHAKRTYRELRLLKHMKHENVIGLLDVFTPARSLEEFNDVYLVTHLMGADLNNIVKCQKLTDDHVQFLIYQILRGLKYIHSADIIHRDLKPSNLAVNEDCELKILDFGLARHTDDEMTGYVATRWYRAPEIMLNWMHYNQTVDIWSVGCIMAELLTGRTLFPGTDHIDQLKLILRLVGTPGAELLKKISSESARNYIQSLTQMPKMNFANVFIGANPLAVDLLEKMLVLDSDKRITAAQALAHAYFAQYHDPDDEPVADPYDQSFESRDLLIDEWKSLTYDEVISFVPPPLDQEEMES

As for `COC(=O)c1cccc(NC2CCN(S(=O)(=O)c3ccc(CNC(=O)c4ccc([N+](=O)[O-])cc4)s3)CC2)c1`, the IC50 (as a rule, the midpoint of a concentration-inhibition curve) was > 30 µM.

On to `O=C(NCc1ccc(S(=O)(=O)N2CCCN(C(=O)Cc3ccccc3)CC2)s1)c1ccc(Cl)cc1`, for which the IC50 was > 30 µM.

For the compound `O=C(NCc1ccc(S(=O)(=O)N2CCC(Nc3ccc(Cl)cc3)CC2)s1)c1ccc(Cl)cc1`, the IC50 was > 30 µM.

On to `O=C(NCc1ccc(S(=O)(=O)N2CCN(C(=O)c3cccc4ccccc34)CC2)s1)c1ccc(Cl)cc1`, for which the IC50 is > 30 µM.

With `NS(=O)(=O)c1cccc(NC2CCN(S(=O)(=O)c3ccc(CNC(=O)c4ccc(Cl)cc4)s3)CC2)c1`, the IC50 is > 30 µM.

Consider `COc1cccc(C(=O)NCc2ccc(S(=O)(=O)N3CCC(Nc4ccccc4[N+](=O)[O-])CC3)s2)c1`, for which the IC50 is > 30 µM.

For `O=C(NCc1ccc(S(=O)(=O)N2CCC(Nc3ccccc3)CC2)s1)c1ccc(Cl)cc1`, the IC50 is > 30 µM.

Regarding `O=C(NCc1ccc(S(=O)(=O)N2CCC(n3nnc4ccccc43)CC2)s1)c1ccc(Cl)cc1`, the IC50 is > 30 µM.

Regarding `O=C(NCc1ccc(S(=O)(=O)N2CCC(n3nnc4ccccc43)CC2)s1)c1ccccc1O`, the IC50 is > 30 µM.

For the compound `CCCc1cccc(NC2CCN(S(=O)(=O)c3ccc(CNC(=O)c4ccc(Cl)cc4)s3)CC2)c1`, the IC50 is > 30 µM.

As for `O=C(NCc1ccc(S(=O)(=O)N2CCC(n3cnc4ccccc43)CC2)s1)c1ccc(Cl)cc1`, the IC50 was > 30 µM.

On to `O=C(NCc1ccc(S(=O)(=O)N2CCC(C(=O)c3ccc(F)cc3F)CC2)s1)c1ccc(Cl)cc1`, for which the IC50 is > 30 µM.

For the compound `O=C(NCc1ccc(S(=O)(=O)N2CCC(Nc3cccc(S(=O)(=O)CCO)c3)CC2)s1)c1ccc(Cl)cc1`, the IC50 is > 30 µM.

As to `COc1cccc(NC2CCN(S(=O)(=O)c3ccc(CNC(=O)c4ccc([N+](=O)[O-])cc4)s3)CC2)c1`, the IC50 was > 30 µM.
